Experimental data published in paper PMC6376154 (International Journal for Parasitology: Drugs and Drug …, 2019).
Read-outs that look alike come from different tables or passages of the source.

Key:
[1] = 3H-thymidine incorporation toxicity assay on ConA-stimulated uninfected bovine PBMC (CC50); settings: bovine
Procedure: (§1) All the MMV compounds were initially tested for inhibitory activity on the growth of F100TpM, a bovine lymphocyte cell line infected by T. parva. […] All compounds were tested in triplicate.
(§2) The radiolabeled precursor ^3H-thymidine is incorporated into DNA strands during cell replication and radioisotope incorporation is often used as a measure of cell proliferation.
(§3) IC50 values were calculated using the Graph Pad Prism 7 software (GraphPad Software, Inc., La Jolla, CA), and average values of radio-isotope incorporation in wells with and without compound on the growth of F100TpM cells. The CC50 values were calculated using ^3H-thymidine incorporation values determined on the growth of PBMC stimulated with ConA. The therapeutic index of a compound was calculated by dividing the CC50 value with the IC50 value.

[2] = test system: F100TpM, a bovine lymphocyte cell line infected by T. parva; assay: 3H-thymidine incorporation growth assay on F100TpM cells (screen at 1 μM and IC50 titration); settings: for TI (CC50/IC50), therapeutic index: CC50 on Con A blasts divided by IC50 on F100TpM;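 for all read-outs here: growth inhibition compared against wells lacking compound, run in triplicate, and CC50 derived from 3H-thymidine uptake by PBMC stimulated with ConA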
Procedure: as §1, §2, §3

[3] = in vitro; settings: bovine, CC50 (μM) Con A blasts
Procedure: as §1, §2, §3

[4] = test system: P. falciparum 3D7 asexual blood stage; settings: cited from earlier work
[5] = test system: Trypanosoma cruzi; design: method as in Van Voorhis et al., 2016; settings: at 5 μM; ref Van Voorhis et al., 2016; cited from earlier work
[6] = test system: Plasmodium berghei ookinete; design: method as in Van Voorhis et al., 2016; settings: at 10 μM; ref Van Voorhis et al., 2016; cited from earlier work
[7] = test system: P. falciparum gametocyte NF54-late stage; design: method as in Van Voorhis et al., 2016; settings: at 5 μM; ref Van Voorhis et al., 2016; cited from earlier work
[8] = test system: U87; design: method as in Van Voorhis et al., 2016; settings: at 5 μM; only one of nine cell lines tested; ref Van Voorhis et al., 2016; cited from earlier work
[9] = test system: bovine PBMC stimulated with ConA (Con A blasts); assay: 3H-thymidine incorporation toxicity assay on ConA-stimulated uninfected bovine PBMC (CC50); settings: read-out: CC50 (μM) Con A blasts; uninfected bovine PBMC stimulated with ConA, 48 h compound, 3H-thymidine incorporation
Procedure: as §1, §2, §3

[10] = design: method as in MMV data sheet; settings: at 5 uM; ref MMV data sheet; cited from earlier work
[11] = design: method as in MMV data sheets; settings: at 5 uM; ref MMV data sheets; cited from earlier work
[12] = test system: bovine PBMC stimulated with ConA (Con A blasts)
Procedure: as §1, §2, §3

[13] = test system: Theileria annulata infected cell lines; design: method as in Hostettler et al., 2016; settings: ref Hostettler et al., 2016; cited from earlier work
[14] = test system: human foreskin fibroblast control cells; design: method as in Hostettler et al., 2016; settings: T. annulata assay; ref Hostettler et al., 2016; cited from earlier work
[15] = test system: T. annulata gene TaSP; design: method as in Hostettler et al., 2016; settings: ref Hostettler et al., 2016; cited from earlier work
[16] = uninfected bovine PBMC stimulated with ConA (Con A blasts), CC50 (μM) Con A blasts, uninfected bovine PBMC stimulated with ConA, 48 h compound, 3H-thymidine incorporation
[17] = Bos taurus, Lymphocyte, read-out: IC50 (μM) F100TpM, T. parva infected lymphocyte cell line, 48 h compound, 3H-thymidine incorporation
[18] = MMV Malaria Box sheet, ref MMV data sheets, read-out: EC50_nM
[19] = source StJude, ref ChEMBL_NTD, read-out: CHEMBL EC50
[20] = read-out: IC50 (μM) F100TpM, T. parva infected lymphocyte cell line, 48 h compound, 3H-thymidine incorporation
[21] = MMV Malaria Box data sheet, ref MMV data sheets
[22] = MMV Malaria Box data sheet, ref MMV data sheets, read-out: EC50_nM
[23] = source GNF, ref ChEMBL_NTD, read-out: CHEMBL EC50
[24] = source GSK, ref ChEMBL_NTD, read-out: CHEMBL EC50
[25] = ChEMBL-NTD value per source (GNF, GSK, StJude), several values in a cell follow the order of the sources, read-out: CHEMBL EC50
[26] = MMV Malaria Box sheet, ref MMV data sheets
[27] = given in Comment because of solubility issue at 5 uM, ref MMV data sheets

With `CC(C)(C)[C@H]1CC[C@H](CC2=C(O)C(=O)c3ccccc3C2=O)CC1` [Buparvaquone, reference compound] the CC50 at 48 h [1, 16] was > 10 µM, the IC50 [2, 17] was 0.0042 µM and the “TI (CC50/IC50), therapeutic index” value [2] was >2380. The “TI (CC50/IC50), therapeutic index” value ([2]; listed as buparvaquone) was “more than 2000”.
In the case of `Cc1nc(Nc2ncc(C(=O)Nc3c(C)cccc3Cl)s2)cc(N2CCN(CCO)CC2)n1` [Dasatinib, dasatinib, reference compound], the CC50 at 48 h [3] is reported as > 10 µM and the “TI (CC50/IC50), therapeutic index” value [2] is reported as > 2000.
For `Oc1ccc(Br)cc1CN1CCN(Cc2cccc(F)c2)CC1` [MMV000356], the EC50 [4, 18] is given as 1.03 µM, the EC50 [4, 19] is given as 1.4 µM and the CC50 at 48 h [1] is given as 0.86 µM. The IC50 ([2]; Bos taurus, Lymphocyte, read-out: IC50 (μM) F100TpM) was 0.87 µM and the “TI (CC50/IC50), therapeutic index” value [2] was 0.99.
With `COC(=O)Nc1nc2ccc(C(=O)c3ccccc3)cc2[nH]1` [MMV003152, Mebendazole, reference compound] the CC50 at 48 h [3] was < 0.001 µM, the “TI (CC50/IC50), therapeutic index” value [2] was <0.001 and the IC50 [2, 20] was 0.36 µM. For the same molecule, the IC50 ([2]; read-out: IC50 (μM) F100TpM, T. parva infected lymphocyte cell line, 48 h compound, 3H-thymidine incorporation, listed as mebendazole) was < 1 µM.
For `CCCN(CCC)CC(O)COc1ccccc1C(=O)Nc1ccccc1` (stereo not shown) [MMV006455], the “percent_inh @ 5 uM” value [4, 21] is listed as 98%, the EC50 [4, 22] is listed as 0.196 µM and the EC50 [4, 23] is listed as 0.365 µM. The EC50 [4, 24] was 0.799 µM, the CC50 at 48 h [1, 16] was 0.9 µM and the IC50 [2, 17] was 0.84 µM. The “TI (CC50/IC50), therapeutic index” value [2] was 1.07.
For `COc1cc(-c2nc(-c3ccc(Sc4ccccc4)cc3)c(-c3ccccc3)[nH]2)cc(OC)c1O` [MMV007273], the EC50 [4, 25] is listed as 1.28 µM, the CC50 at 48 h [1, 16] is listed as 0.06 µM and the IC50 [2, 17] is listed as 0.04 µM. For the same molecule, the “TI (CC50/IC50), therapeutic index” value [2] was 1.5.
In the case of `Clc1ccc2c(N3CCCC3)ccnc2c1` [MMV007363], the “percent_inh @ 5 uM” value [4, 26] is given as 97%, the EC50 [4, 18] is given as 0.944 µM and the EC50 [4, 23] is given as 0.283 µM. The CC50 at 48 h [1, 16] was 1.09 µM, the IC50 [2, 17] was 1.93 µM and the “TI (CC50/IC50), therapeutic index” value [2] was 0.56.
For `COc1ccc2nc(C)cc(Nc3cccc(O)c3)c2c1` [MMV008212], the “growth inhibition of Trypanosoma cruzi” value [5] is given as 100%, the “growth inhibition of Plasmodium berghei ookinete” value [6] is given as 76% and the “growth inhibition of P. falciparum gametocyte NF54-late stage” value [7] is given as 91%. For the same molecule, the “percent_inh @ 5 uM” value [4, 26] was 98%, the EC50 [4, 18] was 0.969 µM and the “growth inhibition of P. falciparum 3D7 asexual blood stage” value ([4]; at 5 μM, ref Van Voorhis et al., 2016) was 98%. The EC50 [4, 23] was 0.228 µM, the “cell death, U87 cell line” value [8] was 76% and the CC50 at 48 h [1, 16] was > 5 µM. The CC50 [9] was > 10 µM, the IC50 [2, 17] was 0.78 µM and the “TI (CC50/IC50), therapeutic index” value [2] was >12.
In the case of `CCOc1cccc(C(=O)Nc2ccc(-c3nc4ccccc4[nH]3)cc2)c1` [MMV019202], the “% inh. At 2.5 uM” value ([4]; Comment column, ref MMV data sheet) is listed as 97%, the EC50 ([4]; value(s) per source (GSK, GNF, StJude), separated by semicolon, ref ChEMBL-NTD, read-out: CHEMBL EC50) is listed as 1.01 µM and the “Solubility (Comment)” value [10] is listed as “Solubility issue at 5 uM”.
In the case of `COc1ccc(-c2nonc2NC(=O)c2cccc(Cl)c2)cc1OC` [MMV020660], the “% inh. At 2.5 uM” value [4, 27] is given as 97%, the EC50 [4, 24] is given as 0.876 µM and the “Comment: solubility” value [11] is given as “Solubility issue at 5 uM”.
For `COc1ccc(-c2cnc3ccc(N4CCCC4)nn23)cc1OC` [MMV023985], the CC50 [12] was < 0.001 µM, the “TI (CC50/IC50), therapeutic index” value [2] was <0.001 and the IC50 [2, 20] was 0.52 µM.
In the case of `CCOC(=O)c1cnc2c(CC)cccc2c1O` [MMV498479], the EC50 [4, 25] is listed as 1.66 µM, the CC50 at 48 h [1, 16] is listed as 0.13 µM and the IC50 [2, 17] is listed as 0.05 µM. The “TI (CC50/IC50), therapeutic index” value [2] was 2.6.
For `CCOc1cc(Cl)c(C(C)NC(=O)c2ccccc2)cc1OCC` (stereo not shown) [MMV665800], the “percent_inh @ 5 uM” value [4, 21] is listed as 96%, the EC50 [4, 22] is listed as 1.37 µM and the EC50 [4, 24] is listed as 0.875 µM. For the same molecule, the CC50 at 48 h [1, 16] was 0.53 µM, the IC50 [2, 17] was 0.49 µM and the “TI (CC50/IC50), therapeutic index” value [2] was 1.08.
In the case of `COc1ccc2c(=O)cc(C(Cl)(Cl)Cl)oc2c1` [MMV665820], the “percent_inh @ 5 uM” value [4, 21] is listed as 94%, the EC50 [4, 22] is listed as 0.52 µM and the EC50 [4, 19] is listed as 15 µM. For the same molecule, the “inhibitory activity on T. annulata cell lines” value [13] was “inhibitory”, the “viability of human foreskin fibroblast control cells” value [14] was “did not impair viability” and the “lowering of relative expression of T. annulata gene TaSP” value [15] was “failed to lower the relative expression of T. annulata gene TaSP by 50%”. The CC50 at 48 h [1, 16] was 0.25 µM, the IC50 [2, 17] was 0.15 µM and the “TI (CC50/IC50), therapeutic index” value [2] was 1.67.
For `CCCc1cc(O)c2c3c(c(=O)oc2c1)CN(C)CC3` [MMV665841], the “percent_inh @ 5 uM” value [4, 21] is listed as 97%, the EC50 [4, 22] is listed as 0.146 µM and the EC50 [4, 23] is listed as 0.554 µM. For the same molecule, the EC50 [4, 24] was 0.873 µM, the CC50 at 48 h [1, 16] was 0.66 µM and the IC50 [2, 17] was 0.36 µM. For the same molecule, the “TI (CC50/IC50), therapeutic index” value [2] was 1.83.
In the case of `CC(=O)c1ccc(NC(=O)CSc2nc(-c3ccccc3Cl)ns2)cc1` [MMV666124], the “% inh. At 2.5 uM” value [4, 27] is listed as 88%, the EC50 [4, 24] is listed as 1.13 µM and the “Comment: solubility” value [11] is listed as “Solubility issue at 5 uM”.
